pIC50: −log10 of the molar value. Bounds are passed on as bounds.

This passage reports IC50 results from patent US11339169B2, “P2X3 and/or P2X2/3 compounds and methods” (Asana BioSciences, LLC, priority 2016, dated 2022).

The target of one test is T1, hP2X3 (Homo sapiens, UniProt P56373).
T1 construct: host or cells: HEK (hP2X3-HEK)
T1 sequence (P56373 1-397): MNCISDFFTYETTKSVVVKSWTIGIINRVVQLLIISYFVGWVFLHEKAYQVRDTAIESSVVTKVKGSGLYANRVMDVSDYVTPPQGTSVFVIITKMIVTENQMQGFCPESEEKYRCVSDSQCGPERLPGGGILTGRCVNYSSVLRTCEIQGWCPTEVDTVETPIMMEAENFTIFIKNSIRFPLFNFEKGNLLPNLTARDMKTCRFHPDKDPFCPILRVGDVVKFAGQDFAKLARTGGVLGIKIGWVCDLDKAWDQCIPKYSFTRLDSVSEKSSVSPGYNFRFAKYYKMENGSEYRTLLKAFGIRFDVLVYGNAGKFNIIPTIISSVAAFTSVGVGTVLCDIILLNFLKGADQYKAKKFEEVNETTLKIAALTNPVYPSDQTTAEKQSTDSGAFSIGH
The test is described as follows: FLIPR intracellular calcium assay, hP2X3. Format: cell-based. To be noted: human P2X3-HEK cells, agonist at EC75. From the text: (§1) The FLIPR® assay utilizes cells which express human or rat P2X3 or P2X2/3 receptors. Recombinant cells expressing hP2X3 (Cat #6188) and hP2X2/3 (Cat #6179) were procured from Chantest Corp. Rat P2X2 (NCBI Accession No: U14414) was amplified by PCR from PC12 cDNA (a rat adrenal medulla cell line). The PCR product obtained containing the protein coding sequence of rat P2X2 was cloned into EcoRV-digested and dephosphorylated vector plRES-puro3 within the multiple cloning site (MCS). See, FIG. 1A.
(§2) (i) Intracellular Calcium Assay Protocol for Screening Compounds
(§3) Cryo-vial containing 6×10^6 cells (human P2X3-HEK/human P2X2/3-TRex293/rat P2X2/3-TRex293/rat P2X3 TRex-CHO) was thawed in a 37° C. water bath. Cells were suspended in 20 mL of respective cell plating media (See annexure for composition) in a 50 mL centrifuge tube. The cell viability was checked with the help of Trypan Blue dye. Upon washing, cells were plated in a black 384-well clear bottomed, sterile poly-D-lysine coated plate such that, each well contained 10,000 cells (15,000/well for hP2X3) in 30 μL cell plating media. The plate was incubated in a 5% CO2 incubator at 37° C. for 24 h.
(§4) The next day, prior to the assay, the cell plating media was removed from each well by decanting and gentle tapping. Thirty μL of FLIPR Calcium 4 dye solution was added to each well. The plate was incubated at 37° C. for 45 min (60 min for hP2X3). The plate was next equilibrated at room temperature for 15 minutes before placing it in a 384 well FLIPR for the assay.
(§5) Compounds were dissolved in DMSO and serially diluted following 11 point half log (3.16 fold) dilution with a starting concentration of 2 mM. Dilutions were mixed with assay buffer just before performing the assay.
(§6) Compounds were added to the respective wells of the assay-ready cell plate with the help of the FLIPR and fluorescence readings were captured for 5 min to observe any possible agonistic property of the compounds. The plate was then incubated at room temperature for 15 min. The cells were stimulated with respective agonist EC75 concentration and the fluorescence readings were captured for another 5 min by FLIPR. The difference in fluorescence readings in presence of the compounds were compared with that of the control wells (wells having no compound) to calculate the inhibitory potency of the compounds. The IC50 values of the compounds were determined using the Graph pad Prism software.
(§7) (ii) Cell Plating Media for hP2X3-HEK and hP2X2/3-TRex293 Cells • DMEM/F12 (1:1) HAM media (Invitrogen; Cat #11039) • 1×NEAA (Invitrogen; Cat #11140) • 25 mM HEPES (Invitrogen; Cat #15630) • 1 mM sodium pyruvate (Invitrogen; Cat #11360) • 10% tetracycline negative FBS (PAA; Cat #A15-209) • 1 μg/mL doxycycline (Clontech; Cat #63131) [for hP2X2/3-TRex293 cells only]
(§8) (v) Assay Buffer Composition • HBSS (Invitrogen Cat #14025) • 20 mM HEPES (Invitrogen Cat #15630) • 0.01% F127 (Sigma Cat #P2443) • 1.8 mM CaCl2 (Sigma Cat #C5080) • pH adjusted to 7.4
(§9) (vi) Dye Solution Composition • 1× FLIPR Calcium 4 dye in assay buffer (Molecular devices Cat #R8141) • 1.8 mM Probenecid (Sigma Cat #P8761) • pH adjusted to 7.4

The target in the next test is T2, hP2X2/3 (Homo sapiens, UniProt P56373+Q9UBL9).
T2 construct: host or cells: TRex293 (hP2X2/3-TRex293), doxycycline-induced
T2 sequence (P56373 1-397): T1 sequence (P56373 1-397)
T2 sequence (Q9UBL9 1-471): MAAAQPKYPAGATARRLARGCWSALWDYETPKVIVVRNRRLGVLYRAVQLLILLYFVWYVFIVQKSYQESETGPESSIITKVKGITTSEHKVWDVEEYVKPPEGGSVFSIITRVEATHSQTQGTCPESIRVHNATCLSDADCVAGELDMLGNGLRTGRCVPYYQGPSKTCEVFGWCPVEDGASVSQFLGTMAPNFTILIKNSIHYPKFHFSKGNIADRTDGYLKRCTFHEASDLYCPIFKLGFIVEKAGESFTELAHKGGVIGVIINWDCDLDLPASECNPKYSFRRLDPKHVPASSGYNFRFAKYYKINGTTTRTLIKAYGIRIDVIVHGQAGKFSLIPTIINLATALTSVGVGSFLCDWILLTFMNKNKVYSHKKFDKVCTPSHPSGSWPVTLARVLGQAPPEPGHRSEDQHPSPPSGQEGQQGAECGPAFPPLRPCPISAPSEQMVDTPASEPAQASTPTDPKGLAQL
The test is described as follows: FLIPR intracellular calcium assay, hP2X2/3. The class given is cell-based. To be noted: human P2X2/3-TRex293 cells, agonist at EC75.
Text: as §1, §2, §3, §4, §5, §6, §7, §8, §9

As for “4-{1-sec-Butyl-7-[((R)-cyclopropyl-quinolin-3-yl-methyl)-amino]-1H-pyrazolo[4,3-d]pyrimidin-5-yl}-piperazine-1-sulfonic Acid Amide [Example 109]”, at hP2X3, the pIC50 is 6.00 to 7.00. Take `CCC(C)n1ncc2nc(-n3cnnn3)nc(N[C@@H](c3cnc4ccccc4c3)C3CC3)c21` (single isomer, unassigned) [Example 78]: the pIC50 on hP2X3 is 6.00 to 7.00. As to `CCC(C)n1ncc2nc(-n3cnnn3)nc(N[C@@H](c3cnc4ccccc4c3)C3CC3)c21` (single isomer, unassigned) [Example 79], the pIC50 on hP2X3 was 6.00 to 7.00; on hP2X2/3, 5.00 to 6.00.

`CC(=O)N1CCN(c2nc(N[C@H](C)c3cnc4ccccc4c3)c3nn(C(C)C)cc3n2)CC1` [Example 1, 1-{4-[2-Isopropyl-7-((R)-1-quinolin-3-yl-ethylamino)-2H-pyrazolo[4,3-d]pyrimidin-5-yl]-piperazin-1-yl}-ethanone]: the pIC50 was 7.00 to 9.00 on hP2X3 and less than 5.00 on hP2X2/3. Take `CC(=O)N1CCN(c2nc(NC(C)c3cnc4ccccc4c3)c3nn(C(C)C)cc3n2)CC1` (stereo not drawn) [Example 2]: the pIC50 on hP2X3 is 6.00 to 7.00. As to `CC(=O)N1CCN(c2nc(NC(C)(C)Cc3ccc(Cl)cc3)c3nn(C(C)C)cc3n2)CC1` [Example 3], the negative logarithm of the IC50 (pIC50) at hP2X3 was 6.00 to 7.00; on hP2X2/3, 5.00 to 6.00. For `CCC(C)n1cc2nc(N3CCN(C(C)=O)CC3)nc(NC(C)c3cnc4ccccc4c3)c2n1` (stereo not drawn) [Example 4], the values for the pIC50 at hP2X3 and on hP2X2/3 were 7.00 to 9.00 and less than 5.00, respectively.

In the case of `CCC(C)n1cc2nc(N3CCN(C(C)=O)CC3)nc(N[C@H](C)c3cnc4ccccc4c3)c2n1` (stereo partly drawn) [Example 5], the pIC50 is 7.00 to 9.00 on hP2X3 and less than 5.00 at hP2X2/3. Turning to `CCC(C)n1cc2nc(N3CCN(C(C)=O)CC3)nc(NC(C)(C)Cc3ccc(Cl)cc3)c2n1` (stereo not drawn) [Example 6], the figures for the pIC50 on hP2X3 and on hP2X2/3 were 6.00 to 7.00 and 5.00 to 6.00, respectively.

For the molecule `CC(=O)N1CCN(c2nc(N[C@H](C)c3cnc4ccccc4c3)c3nn(CC(C)C)cc3n2)CC1` [Example 7], the pIC50 on hP2X3 was 6.00 to 7.00; at hP2X2/3, less than 5.00. Consider `CCC(CC)n1cc2nc(N3CCN(C(C)=O)CC3)nc(N[C@H](C)c3cnc4ccccc4c3)c2n1` [Example 8], for which the pIC50 on hP2X3 is 7.00 to 9.00. Turning to `CC(=O)N1CCN(c2nc(N[C@H](C)c3cnc4ccccc4c3)c3nn(-c4ccccc4)cc3n2)CC1` [Example 9, 1-{4-[2-Phenyl-7-((R)-1-quinolin-3-yl-ethylamino)-2H-pyrazolo[4,3-d]pyrimidin-5-yl]-piperazin-1-yl} ethanone], the pIC50 at hP2X3 was 6.00 to 7.00. Take `CC(=O)N1CCN(c2nc(NC(C)c3cnc4ccccc4c3)c3c(cnn3C(C)C)n2)CC1` (stereo not drawn) [Example 11]: the pIC50 on hP2X3 is 7.00 to 9.00; at hP2X2/3, 5.00 to 6.00. The like results for `CC(=O)N1CCN(c2nc(N[C@H](C)c3cnc4ccccc4c3)c3c(cnn3C(C)C)n2)CC1` [Example 12] were, in that order, 7.00 to 9.00 and 5.00 to 6.00. In the case of `CC(=O)N1CCN(c2nc(NC(C)(C)Cc3ccc(Cl)cc3)c3c(cnn3C(C)C)n2)CC1` [Example 13], the pIC50 at hP2X3 was 7.00 to 9.00; on hP2X2/3 it was 5.00 to 6.00. The like results for `CC(=O)N1CCN(c2nc(NCc3cnc4ccccc4c3)c3c(cnn3C(C)C)n2)CC1` [Example 14] were, in that order, 6.00 to 7.00 and less than 5.00.

For `CC(C)n1ncc2nc(N3CCN(C)C(=O)C3)nc(N[C@H](C)c3cnc4ccccc4c3)c21` [Example 15], the pIC50 was 7.00 to 9.00 on hP2X3 and 5.00 to 6.00 on hP2X2/3. As for `CC(=O)N1CCN(c2nc(N[C@@H](C)c3cnc4ccccc4c3)c3c(cnn3C(C)C)n2)CC1` [Example 17], on hP2X3, the pIC50 was 6.00 to 7.00. On the same count and under the same terms, to `CCC(C)n1ncc2nc(N3CCN(C)C(=O)C3)nc(N[C@H](C)c3cnc4ccccc4c3)c21` (stereo partly drawn) [Example 20] belongs 6.00 to 7.00. Consider `CC(=O)N1CCN(c2nc(N[C@H](C)c3cnc4ccccc4c3)c3c(cnn3CC3CCOCC3)n2)CC1` [Example 26], for which the pIC50 at hP2X3 was 6.00 to 7.00.

With `CC(=O)N1CCN(c2nc(N[C@H](C)c3cnc4ccccc4c3)c3c(cnn3C3CCOCC3)n2)CC1` [Example 27], the pIC50 on hP2X3 was 7.00 to 9.00.

For the molecule `CCCCCCn1ncc2nc(N3CCN(C(C)=O)CC3)nc(N[C@H](C)c3cnc4ccccc4c3)c21` [Example 28], the negative logarithm of the IC50 (pIC50) on hP2X3 is 6.00 to 7.00. For `CCC(CC)n1ncc2nc(N3CCN(C(C)=O)CC3)nc(N[C@@H](CC)c3cnc4ccccc4c3)c21` [Example 36], the pIC50 on hP2X3 was 6.00 to 7.00. For the molecule `CCC(=O)N1CCN(c2nc(N[C@H](C)c3cnc4ccccc4c3)c3c(cnn3C(C)C)n2)CC1` [Example 37], the pIC50 at hP2X3 is 7.00 to 9.00. Take `CC(C)n1ncc2nc(N3CCNC(=O)C3)nc(N[C@H](C)c3cnc4ccccc4c3)c21` [Example 41]: at hP2X3, the pIC50 was 6.00 to 7.00. With `CCn1ncc2nc(N3CCN(C(C)=O)CC3)nc(N[C@H](C)c3cnc4ccccc4c3)c21` [Example 50], the pIC50 on hP2X3 was 6.00 to 7.00. Take `CCC(C)n1ncc2nc(N3CCN(C(C)=O)CC3)nc(NC(C)c3ccc(-c4ccccn4)cc3)c21` (stereo not drawn) [Example 53]: the pIC50 on hP2X3 was 6.00 to 7.00. For `CCC(CC)n1ncc2nc(N3CCN(C(C)=O)CC3)nc(N[C@@H](C)c3cnc4ccc(F)cc4c3)c21` [Example 54], the pIC50 on hP2X3 was 6.00 to 7.00. As for `CCC(CC)n1ncc2nc(N3CCN(C(C)=O)CC3)nc(NC(c3ccc(OCC4CC4)nc3)C3CC3)c21` (stereo not drawn) [Example 63], on hP2X3, the pIC50 was 6.00 to 7.00. `CC[C@H](C)n1ncc2nc(N3CCN(C(N)=O)CC3)nc(NC(c3ccc4nccn4c3)C3CC3)c21` (stereo partly drawn) [Example 67]: the negative logarithm of the IC50 (pIC50) at hP2X3 was 6.00 to 7.00. Still for that read-out and setting: as for `CC[C@H](C)n1ncc2nc(N3CCN(C(N)=O)CC3)nc(NC(C)c3n[nH]c4ccccc34)c21` (stereo partly drawn) [Example 71], the figure is 6.00 to 7.00.

For `CC[C@H](C)n1ncc2nc(N3CCN(C(N)=O)CC3)nc(NC(C)c3cc4ccccn4n3)c21` (stereo partly drawn) [Example 73], the pIC50 at hP2X3 was 6.00 to 7.00. For `CC(=O)N1CCN(c2nc(NC(C)c3cnc4ccccc4c3)c3nn(C(C)C)c(C(N)=O)c3n2)CC1` (stereo not drawn) [Example 95], on hP2X3, the pIC50 is 6.00 to 7.00. As for `CC(=O)N1CCN(c2nc(NC(C)(C)Cc3ccc(Cl)cc3)c3nn(C(C)C)c(Br)c3n2)CC1` [Example 97], the pIC50 on hP2X3 is 7.00 to 9.00. Regarding `CC(=O)N1CCN(c2nc(N[C@H](C)c3cnc4ccccc4c3)c3nn(C(C)C)c(C4CC4)c3n2)CC1` [Example 107], the pIC50 at hP2X3 was 7.00 to 9.00.

For `CCC(C)n1ncc2nc(-c3cnn(CC(N)=O)c3)nc(N[C@@H](c3cnc4ccccc4c3)C3CC3)c21` (stereo partly drawn) [Example 120], on hP2X3, the pIC50 is 6.00 to 7.00.
